Experiments:
TE10 cells [1] = assay: CCK8 cell proliferation, TE10; format: cell-based; conditions: compared with the blank control
Excerpt: (§1) At the same time, BI-D1870 was used as a positive control, and no drug was used as a blank control (Black).
(§2) The growth curve was drawn based on time and absorbance value.

ECA109 cells [2] = assay: CCK8 cell proliferation, ECA109; format: cell-based; conditions: compared with the blank control
Excerpt: as §1, §2

TE10 cells [3] = assay: Transwell migration assay, TE10; format: cell-based; conditions: compared with the blank control
Method: as §1
(§3) • (1) Digest cells. Wash once with PBS, resuspend in serum-free medium, and adjust the cell density to 5×10^5/ml. • (2) Add 500 μl of culture medium containing 10% fetal bovine serum to the lower chamber of the 24-well plate. Take 200 μl of cell suspension and add it to the chamber. Note that there are no bubbles between the chamber and the lower culture medium. • (3) Culture routinely for 16-24 h. • (4) Aspirate the culture medium in the chamber, fix the cells in the chamber with anhydrous methanol for 15 min, and rinse with PBS. • (5) Color: Add Gumsa staining solution to the 24-well plate, immerse the membrane in the staining solution for 20 min, and wash with PBS. • (6) Carefully wipe off the cells on the inner layer of the membrane with a cotton swab and air-dry the membrane. • (7) Take pictures under a microscope, count 5 high-power fields, and take the average value.

ECA109 cells [4] = assay: Transwell migration assay, ECA109; format: cell-based; conditions: compared with the blank control
Method: as §1, §3

[5] = system: RSK4 downstream substrates (P-RPS6, P-GSK3β); assay: Western blot of phosphorylation level of RSK4 downstream substrates; format: cell-based; conditions: TE10, ECA109 cells
Method: Western blot was used to detect the effect of phosphorylation level of RSK4 downstream substrates.
(1) Protein extraction, using Kangwei Century RIPA lysis buffer. Place the cell culture flask on ice for 20 minutes, shake it back and forth, and blow it with a pipette. Scrape the cells with a cell scraper, transfer them to an EP tube, and centrifuge them at 4° C. 10-20 μl can be aspirated for protein quantification. Add loading buffer, boil for 5 min, centrifuge at 12000 rpm for 5 min, and store in an ultra-low temperature refrigerator. Tissue protein extraction: Grind in liquid nitrogen, transfer to EP tube after melting, lyse on ice for 20 min, and centrifuge at 4° C.
(2) Protein quantification, use the Kangwei Century BCA quantification kit. Make two replicate wells for each sample, take the average value to make a standard curve and calculate the sample concentration.
(3) Protein electrophoresis, use the Kangwei Century SDS-PAGE gel preparation kit. The separation gel concentration is 8%, and the concentration gel concentration is 5%. The separation gel is 1.5 cm away from the upper edge of the front glass plate and filled with water to seal the gel. Use filter paper to absorb the water sealing liquid, fill the concentrated gel, and insert the comb. The voltage is 100V constant for 1 h30 min until the bromophenol blue runs out and stops electrophoresis.
(4) Transfer to membrane, soak the gel, filter paper, and sponge pad in 4° C. pre-cooled transfer buffer for 10 min, soak the PVDF membrane with methanol for 5 min, and transfer it to the transfer buffer for 10 min after it is fully wetted. Installation The order of transfer clips: black plate, sponge, 3 layers of filter paper, gel, membrane, 3 layers of filter paper, sponge, white plate. Expel bubbles at each step and place the membrane in one go. […]
(8) Luminescence: Use the Kangwei Century Chemiluminescence Detection Kit and scan the detection results with a chemiluminescence imager.
(9) Use Photoshop software to perform semi-quantitative grayscale analysis of the image and calculate the relative expression of the protein.

ESCC cells = assay: Nude mouse tumor formation experiment, esophageal squamous cell carcinoma; format: in vivo, BALB/c nude mice; conditions: intraperitoneally 15 mg/kg or 30 mg/kg per day; 20 days
Method: • (1) Nude mouse tumor formation experiment was performed on 4-6 week old female BALB/c nude mice, with 5 nude mice in each group. Each mouse was subcutaneously injected with about 1×10^6 ESCC cells dissolved in 200 μl sterile PBS. • (2) When the tumor volume reached 150 mm^3, the mice were divided into groups and treated differently. […] If the mice were infected or in poor condition, they were treated in time. During this period, the tumor volume was measured every 3-5 days, and the volume calculation formula was length×width 2×0.5. • (4) At the end of the experiment, the mice were killed, the subcutaneous tumors were removed, photographed, weighed, and counted.

KYSE450-IR = assay: CCK8 proliferation of icotinib-resistant strain KYSE450-IR; format: cell-based; conditions: for proliferation of KYSE450-IR: 2 μm, CCK8, DMSO blank control
Method: (§4) The CCK-8 cell proliferation kit of Shanghai Taoshu Biotechnology Co., Ltd. was used. • (1) Cell suspension was inoculated in a 96-well plate, 100 μL per well, 2,000 cells per well. • (2) Culture or give drugs according to experimental needs, and treat for an appropriate time. • (3) Add 10 μL of CCK-8 solution to each well and incubate at 37° C. • (4) The absorbance value was determined by selecting a wavelength of 450 nm on the microplate reader. The growth curve was drawn based on time and absorbance value.
(§5) The expression level of EGFR and the sensitivity to icotinib and afatinib in various ESCC cell lines (T1, T10, T11, KYSE150, KYSE450, ECA109, EC9706) were detected. The cell line KYSE450 with high EGFR expression and sensitivity to afatinib (low IC50) was selected. The icotinib and afatinib drug concentration increasing mode of action was used to induce KYSE450 cells to produce drug resistance, and a stable cell line resistant to icotinib and afatinib was obtained. The optimal drug concentration gradient for inducing afatinib obtained from the literature reports and the preliminary experiments before formal induction culture was: 100 nM, 300 nM, 500 nM, 800 nM, 1 μM and 5 μM. The initial induction dose of this experiment was 100 nM, and the highest induction dose was 5 μM. During the induction period, the culture medium containing icotinib and afatinib was replaced every 2 days. When the initial induction dose was induced for two weeks and the cell growth was stable, the drug induction dose began to be doubled, and each dose was maintained for 14 days before reaching the highest induction dose. The drug-resistant cells obtained after 10 months of induction culture were named KYSE450/IR KYSE450/AR cell lines.

KYSE450/AR = assay: CCK8 proliferation of afatinib-resistant strain KYSE450/AR; format: cell-based; conditions: FIG. 10
Method: as §4
as §5, with “When the initial induction dose was induced for two weeks and the cell growth was stable, the drug induction dose began to be doubled, and each dose was maintained for 14 days before reaching the highest induction dose. The drug-resistant cells obtained after 10 months of induction culture were named KYSE450/IR KYSE450/AR cell lines.” left out

B16F10 (melanoma) = B16F10 (melanoma) transplant tumor model; format: in vivo, C57BL/6 mice; conditions: Selonsertib 15 mg/kg per day i.p.; Anti-PD1 50 μg/kg once every two days; 10 days
Method: (§6) • (1) B16F10 (melanoma) and LLC (Lewis lung cancer) transplant tumor models were constructed in 6-8 week old C57BL/6 mice, with 6 mice in each group. Each mouse was subcutaneously injected with about 1×10^6 B16F10 cells and 5×10^6 LLC cells dissolved in 200 μl sterile PBS. • (2) When the tumor volume reached 150 mm^3, the mice were divided into groups and treated differently. […] The Anti-PD1 used in this experiment was specifically In VivoPlus anti-mouse PD-1 (CD279). • (3) The experimental observation time lasted for 10 days (melanoma) or 20 days (Lewis lung cancer). If the mice were infected or in poor condition, they were treated in time. During the period, the tumor volume was measured every 2 days, and the volume calculation formula was length×width 2×0.5. • (4) At the end of the experiment, the mice were killed, the subcutaneous tumors were removed, photographed, weighed, and counted.

LLC (Lewis lung cancer) = LLC (Lewis lung cancer) transplant tumor model; format: in vivo, C57BL/6 mice; conditions: Selonsertib 15 mg/kg per day i.p.; Anti-PD1 50 μg/kg once every two days; 20 days
Method: as §6

CC(C)CCN1c2nc(Nc3cc(F)c(O)c(F)c3)ncc2N(C)C(=O)C1C (stereo not shown) [BI-D1870]
proliferation of TE10 (TE10 cells [1]): can inhibit
proliferation of ECA109 (ECA109 cells [2]): can inhibit
migration of TE10 (TE10 cells [3]): can inhibit
migration of ECA109 (ECA109 cells [4]): can inhibit

Cc1cc(F)c(C(=O)Nc2cccc(-c3nncn3C(C)C)n2)cc1-n1cnc(C2CC2)c1 [Selonsertib, 5-(4-cyclopropyl-1H-imidazol-1-yl)-2-fluoro-N-(6-(4-isopropyl-4H-1,2,4-triazol-3-yl)pyridine-2-yl)-4-methylbenzamide]
expression of P-GSK3β (ser9) [5]: downregulate
expression of P-RPS6 (S235/S236) [5]: downregulate
phosphorylation of RSK4 downstream substrates ([5]; different concentrations): could inhibit
proliferation of TE10 (TE10 cells [1]): can inhibit
proliferation of ECA109 (ECA109 cells [2]): can inhibit
migration of TE10 (TE10 cells [3]): can inhibit
migration of ECA109 (ECA109 cells [4]): can inhibit
inhibitory effect on tumor growth compared with the positive control (BI-D1870) (ESCC cells): stronger inhibitory effect on tumor growth at a lower dose
proliferation of KYSE450-IR (KYSE450-IR): can inhibit
resistance of esophageal squamous cell carcinoma to icotinib (KYSE450-IR; FIG. 9): reverses the resistance
KYSE450/AR proliferation (KYSE450/AR; 2 μm, CCK8): basically consistent with those of KYSE450-IR
resistance of esophageal squamous cell carcinoma to afatinib (KYSE450/AR): reverses the resistance
proliferation of melanoma (tumor growth) (B16F10 (melanoma)): can inhibit
proliferation of Lewis lung cancer (tumor growth) (LLC (Lewis lung cancer)): can inhibit

C#Cc1cccc(Nc2ncnc3cc4c(cc23)OCCOCCOCCO4)c1 [icotinib]
proliferation of KYSE450-IR (KYSE450-IR): extremely low

From patent US20250152570A1 (AIR FORCE MEDICAL UNIVERSITY, priority 2022, published 2025)
